Like-named read-outs stand apart in the source and are kept apart here. Marks after values point to notes of the source that are not given here.
Tests used:
[1] = biological target: CDK2/cyclin A (Homo sapiens, UniProt P24941); experiment: Kinase assay CDK2/cyclin A; assay type: biochemical; details: Ki calculated (Cheng-Prusoff) from experimentally determined IC50 and Km,ATP; read-out: Kinase Inhibition Ki CDK2 - cyclin A
Outline: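 Radiometric assays measured transfer of radioactive phosphate from ATP onto polypeptide substrates, using 2-4 μg recombinant active enzyme in buffer typically containing 25 mM β-glycerophosphate, 20 mM MOPS, 5 mM EGTA, 1 mM DTT and 1 mM Na3VO3 at pH 7.4. Reactions were stopped on ice, filtered on P81 or GF/C plates and washed with orthophosphoric acid. Incorporated radioactivity was scintillation-counted.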

[2] = tested on: glycogen synthase; experiment: Glycogen synthase activation in HEK293 cells; assay type: cell-based; details: for Max FI (% to LiCl): maximum fold induction normalised to 40 mM LiCl
Description: HEK293 cells, mouse adipocytes or rat myotubes were treated in 10-cm Petri dishes with different concentrations of GSK3 inhibitor example compounds for 90 minutes. At the end of the treatment period the cells were washed and scraped in ice cold PBS buffer supplemented with 20 mM NaF. The cells were pelleted by centrifugation and lysed in 300 μL buffer (50 mM.HEPES pH 7.5, 10 mM EDTA, 100 mM NaF, 5 mM DTT, protease inhibitor cocktail (Sigma)). After incubation for 30 min on ice the samples were cleared by centrifugation. The activity of glycogen synthase was determined in the soluble fraction at two different concentrations of […]—low (0.1 mM) and high (10 mM). The reaction was carried out for 30 min (buffer: 50 mM Tris pH 7.8, 20 mM EDTA, 25 mM NaF, 5 mM DTT). The reaction mixture (total volume of 90 μL) contained 1% glycogen, 0.3 mM UDP-glucose and 0.06 μCi ^14C-UDP-glucose. Reaction was stopped by transfer of 70 μL to a GFC 96-well filter plate, containing 140 μL 100% ethanol and the glycogen was allowed to precipitate for 1 h at 4° C. The wells were washed 2 times with 200 μL 66% ethanol and than allowed to dry. Subsequently, 100 μL of scintillation liquid was added, and plates were sealed and counted in a Packard Topcounter. Glycogen synthase activation was calculated as the ratio between the incorporation of labelled ^14C-UDP-glucose in glycogen at low and high concentration of […] (fractional velocity).
The ability of GSK3 inhibitors to activate glycogen synthase was determined in HEK293 cells, mouse adipocytes and rat myotubed. The compounds tested activated glycogen synthase in all three cellular systems with EC50 values in the sub-micromolar to low micromolar concentration range. Most of them exceeded the stimulation induced by 40 mM LiCl (the highest compound concentration used in the assay was 20 μM).

[3] = biological target: T1, GSK3β (Homo sapiens, UniProt P49841); experiment: GSK3β in vitro kinase assay; assay type: biochemical; details: recombinant human GSK3β, 100 μM ATP
T1 construct: purchased New England Biolabs
Outline: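 Radiometric filter-binding assay with GSK3β (1.5 units), 200 μM CREB phosphopeptide, 100 μM ATP plus [γ-32P]ATP, in 20 mM Tris HCl pH7.5, 5 mM DTT, 15 mM MgCl2, 2% DMSO; 30 min at 30° C, stopped with phosphoric acid. 32P incorporation counted by scintillation; IC50 from 10-point titration.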

[4] = Blood levels of test compounds in ZDF fa/fa rats; assay type: in vivo, rat; details: 30 mg/kg per os twice; for concentration at 30 min / concentration at 60 min: male, rat, whole blood, oral; for concentration at 30 min / concentration at 60 min / Average Blood levels: ZDF fa/fa rats; for oral bioavailability (blood levels at 30 and 60 min after the glucose load): male ZDF fa/fa rats
Description: (§1) The ability of example compounds of the present invention to improve glucose metabolism was tested in 12-13 week old male ZDF fa/fa rats. The test animals (10-15 mmol/L fasting glucose level) were dosed twice at 30 mg/kg and the glucose challenge was given at time 0. […] Most of these blood levels were below the EC50 values determined in cellular assays.
(§2) 12-13 weeks old male ZDF fa/fa rats were used to study the effect of example compounds on oral glucose tolerance. […] Body weight was recorded three times per week. Test compounds were dissolve in a formulation of 10% DMSO, 5% Tween, 5% Span 20, 30% PEG 400 and 50% water (v/v) to provide final solutions at 5 mg/mL concentration. Each experimental group contained 7 animals. After an 16 h overnight fast the test compounds were administered at 30 mg/kg per os twice (at −270 min and −30 min) before the oral glucose tolerance test was commenced (2 g glucose/kg per os as a 40% solution introduced via feeding tube). A control group was dosed in a similar manner with the vehicle only. Blood sampling for blood glucose measurement (20 μL blood) was performed at −270, 0, 15, 30, 60, 90, 120 and 180 min. Mixed venous blood was collected from the tail vein into 20-μL glass capillaries, which were placed in a standard tube filled with 1 mL solution for hemolysis. Glucose levels were measured using the glucose oxidase procedure (Super G Glukosemessgeraet; Dr Mueller Geraetebau, Freital, Germany). In addition, 50 μL blood samples were taken at 30 and 60 min after the glucose dose, placed in heparinized tubes, which were then frozen immediately in liquid nitrogen. The bioanalytical method used employed isocratic elution liquid chromatography—tandem mass spectrometry in electrospray positive ion multiple reaction monitoring mode.

[5] = Oral glucose tolerance in male ZDF fa/fa rats; assay type: in vivo, rat; details: for % Glucose Decrease AUC (−270–180 min) / % Glucose decrease-AUC (0–180 min): ZDF fa/fa rats, oral glucose tolerance, 30 mg/kg per os twice (−270 and −30 min)
Description: as §1, §2

[6] = male ZDF fa/fa rats, 30 mg/kg per os twice, oral glucose tolerance test

T1 sequence (P49841 whole entry): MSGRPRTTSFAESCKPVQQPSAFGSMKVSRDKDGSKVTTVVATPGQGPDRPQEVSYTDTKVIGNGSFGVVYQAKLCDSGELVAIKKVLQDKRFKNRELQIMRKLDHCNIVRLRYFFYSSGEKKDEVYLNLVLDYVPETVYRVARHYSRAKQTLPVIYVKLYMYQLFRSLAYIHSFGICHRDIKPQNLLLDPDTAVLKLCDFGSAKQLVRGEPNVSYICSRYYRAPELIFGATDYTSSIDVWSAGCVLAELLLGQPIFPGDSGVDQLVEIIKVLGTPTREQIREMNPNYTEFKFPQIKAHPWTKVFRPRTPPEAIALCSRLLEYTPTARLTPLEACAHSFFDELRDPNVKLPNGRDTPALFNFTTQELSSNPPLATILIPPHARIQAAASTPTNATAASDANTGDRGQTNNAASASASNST

Question: Which results are given for CCNS(=O)(=O)c1cccc(Nc2nccc(-c3sc(=O)n(C)c3C)n2)c1 [Compound 62, 3-[4-(3,4-Dimethyl-2-oxo-2,3-dihydro-thiazol-5-yl)-pyrimidin-2-ylamino]-N-ethyl-benzenesulfonamide]?
Answer: Ki [1]: 610 nM; EC50 ([2]; Homo sapiens): 684 ± 133 nM; Max FI (% to LiCl) [2]: 117 % to LiCl; IC50 [3]: 22 nM; concentration at 30 min ([4]; time 30 min): 27.6 ng/mL; concentration at 60 min ([4]; time 60 min): 29.7 ng/mL; % Glucose Decrease AUC (−270–180 min) [5]: 9%; % Glucose decrease-AUC (0–180 min) [5]: 3.6%

Question: Which EC50 ([2]; Homo sapiens) does the source give for CC(=O)Nc1cc(Nc2nccc(-c3sc(=O)n(C)c3C)n2)cc(C(F)(F)F)c1 [Compound 64, N-{3-[4-(3,4-Dimethyl-2-oxo-2,3-dihydro-thiazol-5-yl)-pyrimidin-2-ylamino]-5-trifluoromethyl-phenyl}-acetamide] here?
Answer: Its EC50 is 49 ± 70 nM.

Question: And the “Max FI (% to LiCl)” value [2]?
Answer: Its value is 107 % to LiCl.

Question: What about the IC50 [3] of the same molecule?
Answer: The IC50 was 3 nM.

Question: And the “oral bioavailability (blood levels at 30 and 60 min after the glucose load)” value [4]?
Answer: The value was “some oral bioavailability”.

Question: And the concentration at 30 min ([4]; time 30 min)?
Answer: The concentration at 30 min was 248 ng/mL.

Question: And the concentration at 60 min ([4]; time 60 min)?
Answer: Its concentration at 60 min is 268 ng/mL.

Question: What about the “% Glucose Decrease AUC (−270–180 min)” value [5] of the same molecule?
Answer: Its value is 9%.

Question: And the “% Glucose decrease-AUC (0–180 min)” value [5]?
Answer: The value was 8%.

Question: And the “glucose AUC” value [5, 6]?
Answer: The value was “moderate decrease”.

Question: With COCCNS(=O)(=O)c1cccc(Nc2nccc(-c3sc(=O)n(C)c3C)n2)c1 [Compound 67, 3-[4-(3,4-Dimethyl-2-oxo-2,3-dihydro-thiazol-5-yl)-pyrimidin-2-ylamino]-N-(2-methoxy-ethyl)-benzenesulfonamide] as the molecule, how does the Ki [1] read?
Answer: The Ki was 1300 nM.

Question: And the EC50 ([2]; Homo sapiens)?
Answer: The EC50 was 3720 ± 2500 nM.

Question: And the “Max FI (% to LiCl)” value [2]?
Answer: Its value is 85 % to LiCl.

Question: What about the IC50 [3] of the same molecule?
Answer: The IC50 was 23 nM.

Question: And the “oral bioavailability (blood levels at 30 and 60 min after the glucose load)” value [4]?
Answer: Its value is “some oral bioavailability”.

Question: What about the concentration at 30 min ([4]; time 30 min) of the same molecule?
Answer: Its concentration at 30 min is 350 ng/mL.

Question: What about the concentration at 60 min ([4]; time 60 min) of the same molecule?
Answer: Its concentration at 60 min is 271 ng/mL.

Question: What about the “% Glucose Decrease AUC (−270–180 min)” value [5] of the same molecule?
Answer: Its value is 14%.

Question: And the “% Glucose decrease-AUC (0–180 min)” value [5]?
Answer: Its value is 7.5%.

Question: And the “glucose AUC” value [5, 6]?
Answer: The value was “moderate decrease”.

Question: What does the source list for Cc1c(-c2ccnc(Nc3cc(Br)cc(C(F)(F)F)c3)n2)sc(=O)n1C [Compound 68, 5-[2-(3-Bromo-5-trifluoromethyl-phenylamino)-pyrimidin-4-yl]-3,4-dimethyl-3H-thiazol-2-one]?
Answer: EC50 ([2]; Homo sapiens): 8340 ± 1880 nM; Max FI (% to LiCl) [2]: 96 % to LiCl; IC50 [3]: 61 nM; oral bioavailability (blood levels at 30 and 60 min after the glucose load) [4]: some oral bioavailability; concentration at 30 min ([4]; time 30 min): 115 ng/mL; concentration at 60 min ([4]; time 60 min): 70.1 ng/mL; % Glucose Decrease AUC (−270–180 min) [5]: 5%; % Glucose decrease-AUC (0–180 min) [5]: 8.4* %; decreased blood glucose levels [5, 6]: statistically significant; glucose AUC [5, 6]: moderate decrease

Question: Which Ki [1] does the source give for Cc1c(-c2ccnc(Nc3cccc(S(=O)(=O)NCCO)c3)n2)sc(=O)n1C [Compound 75, 3-[4-(3,4-Dimethyl-2-oxo-2,3-dihydro-thiazol-5-yl)-pyrimidin-2-ylamino]-N-(2-hydroxy-ethyl)-benzenesulfonamide] here?
Answer: Its Ki is 410 nM.

Question: And the EC50 ([2]; Homo sapiens)?
Answer: The EC50 was 5170 ± 2200 nM.

Question: What about the “Max FI (% to LiCl)” value [2] of the same molecule?
Answer: Its value is 108 % to LiCl.

Question: What about the IC50 [3] of the same molecule?
Answer: The IC50 was 25 nM.

Question: And the “% Glucose Decrease AUC (−270–180 min)” value [5]?
Answer: Its value is 13%.

Question: What about the “% Glucose decrease-AUC (0–180 min)” value [5] of the same molecule?
Answer: Its value is 6.4%.

Question: Which EC50 [2] does the source give for CNc1cc(Nc2nccc(-c3sc(=O)n(C)c3C)n2)cc(C(F)(F)F)c1 [Compound 76, 3,4-Dimethyl-5-[2-(3-methylamino-5-trifluoromethyl-phenylamino)-pyrimidin-4-yl]-3H-thiazol-2-one] here?
Answer: Its EC50 is 444 ± 178 nM.

Question: What about the “Max FI (% to LiCl)” value [2] of the same molecule?
Answer: The value was 88 % to LiCl.

Question: What about the IC50 [3] of the same molecule?
Answer: Its IC50 is 18.9 nM.

Question: What about the “Average Blood levels” value ([4]; time 30 min) of the same molecule?
Answer: The value was 43.0 ng/mL.

Question: And the “Average Blood levels” value ([4]; time 60 min)?
Answer: The value was 48.1 ng/mL.

Question: What about the “% Glucose Decrease AUC (−270–180 min)” value [5] of the same molecule?
Answer: The value was 0%.

Question: And the “% Glucose decrease-AUC (0–180 min)” value [5]?
Answer: Its value is 0.5%.

From patent publication US7902361B2, “Pyrimidin-4-yl-3, 4-thione compounds and their use in therapy” (Cyclacel Limited, priority 2003, dated 2011)
